Laboratory results as given in PMC10847306, “The antibacterial activity and mechanism of a novel peptide MR-22 against multidrug-resistant Escherichia coli” (Frontiers in Cellular and Infection Microbiology, 2024).

Assays:
[1] = system: E. coli clinical strain E08; assay: microbe, parasite or virus in culture
Protocol: (§1) The clinical strains used in this study were obtained from a tertiary healthcare facility located in Guiyang, a city situated within the Guizhou Province of China. The E. coli ATCC 25922 was obtained from the Key and Characteristic Laboratory of Modern Pathogen Biology at Guizhou Medical University in Guiyang, China. All strains were stored at –80°C in LB medium and routinely cultured at LB medium at 37°C.
(§2) The MIC were determined by a micro dilution method in Mueller-Hinton broth (MHB) ([Cuenca-Estrella et al., 2010]). The final concentration of bacterial suspension in MHB were 1.0×10^6 CFU/mL. The final concentration of MR-22 ranged 1 ~ 256 μg/mL in 96 wells plate broth at 37°C for 16~18 h. Imipenem was employed as positive control, bacterial grown without treatment as negative control and MHB as blank control. MIC determination was performed by reading the OD600 nm. Take 100 μL samples in holes that have never seen bacterial growth and place them on the LB agar board. The concentration of MR-22 with no bacterial growth was defined as the MBC.

[2] = system: E. coli clinical strain E05; assay: microbe, parasite or virus in culture
Protocol: as §1, §2

[3] = system: E. coli clinical strain E13; assay: microbe, parasite or virus in culture
Protocol: as §1, §2

[4] = system: E. coli clinical strain E06; assay: microbe, parasite or virus in culture
Protocol: as §1, §2

[5] = system: E. coli clinical strain E10; assay: microbe, parasite or virus in culture
Protocol: as §1, §2

[6] = system: E. coli clinical strain E22; assay: microbe, parasite or virus in culture
Protocol: as §1, §2

[7] = system: E. coli clinical strain E17; assay: microbe, parasite or virus in culture
Protocol: as §1, §2

[8] = system: E. coli clinical strain E14; assay: microbe, parasite or virus in culture
Protocol: as §1, §2

[9] = system: E. coli clinical strain E03; assay: microbe, parasite or virus in culture
Protocol: as §1, §2

[10] = system: E. coli clinical strain E07; assay: microbe, parasite or virus in culture
Protocol: as §1, §2

[11] = system: E. coli clinical strain E18; assay: microbe, parasite or virus in culture
Protocol: as §1, §2

[12] = system: E. coli clinical strain E12; assay: microbe, parasite or virus in culture
Protocol: as §1, §2

[13] = system: E. coli clinical strain E16; assay: microbe, parasite or virus in culture
Protocol: as §1, §2

[14] = system: E. coli clinical strain E02; assay: microbe, parasite or virus in culture
Protocol: as §1, §2

[15] = system: E. coli clinical strain E20; assay: microbe, parasite or virus in culture
Protocol: as §1, §2

[16] = system: E. coli clinical strain E01; assay: microbe, parasite or virus in culture
Protocol: as §1, §2

[17] = system: E. coli clinical strain E19; assay: microbe, parasite or virus in culture
Protocol: as §1, §2

[18] = system: E. coli clinical strain E11; assay: microbe, parasite or virus in culture
Protocol: as §1, §2

[19] = system: E. coli clinical strain E04; assay: microbe, parasite or virus in culture
Protocol: as §1, §2

[20] = system: E. coli clinical strain E15; assay: microbe, parasite or virus in culture
Protocol: as §1, §2

[21] = system: E. coli clinical strain E09; assay: microbe, parasite or virus in culture
Protocol: as §1, §2

[22] = system: E. coli clinical strain E21; assay: microbe, parasite or virus in culture
Protocol: as §1, §2

[23] = system: E. coli ATCC 25922; assay: microbe, parasite or virus in culture
Protocol: as §2

[24] = system: E. coli E19; assay: Mice peritonitis model; format: in vivo; conditions: C57BL/6J mice, E19 peritonitis; 10 mg/kg 1 h after infection; after 36 h; ten mice per group; control group 8.73 ± 0.38
Protocol: This study utilized female C57BL/6J mice aged 6-8 weeks, weight range of 18-20 g, which were obtained from SPF Biotechnology Co., Ltd (Beijing, China). The animals were housed under maintained on a standard 12 h light/12 h dark cycle. All animal experiments were conducted in accordance with the Ethical Principles in Animal Research adopted by Guizhou Medical University and were approved by the Institutional Animal Care and Use Committee.
To evaluate the in vivo efficacy of MR-22, we used a mice peritonitis model. A total of 60 mice were divided into three groups: treatment group (10 mg/kg MR-22, intraperitoneal injection), positive control group (10 mg/kg imipenem, intraperitoneal injection), and normal control group (PBS, intraperitoneal injection). Peritonitis was induced by intraperitoneal injection of 1.0 × 10^8 CFU bacterial inoculum in 0.2 mL of E. coli E19. Survival rates were recorded every 12 h for 7 days.
To study the protective effects of MR-22, 10 mice in each group were sacrificed, and peritoneal lavage fluid, blood, liver, and kidney were collected 36 h after administration. The number of colonies in peritoneal lavage fluid and blood were determined by culturing on LB agar, while the tissues were fixed in 4% paraformaldehyde and subjected to hematoxylin and eosin staining to study the morphology.

[25] = system: E. coli ATCC 25922 and clinically drug resistant isolated strains; assay: microbe, parasite or virus in culture; format: cell-based, Escherichia coli; conditions: Escherichia coli; E. coli ATCC 25922 and 22 clinical isolates; microdilution, MHB; read-out: MIC over all strains tested
Protocol: as §2

MIC ([1]; Escherichia coli, 18 h): ≤ 1 µg/mL | susceptibility category (S/I/R) given with the MIC ([1]; strain E08): S | MIC ([2]; Escherichia coli, 18 h): ≤ 1 µg/mL | susceptibility category (S/I/R) given with the MIC ([2]; strain E05): S | MIC ([3]; Escherichia coli, 18 h): ≤ 1 µg/mL | susceptibility category (S/I/R) given with the MIC ([3]; strain E13): S | MIC ([4]; Escherichia coli, 18 h): ≤ 1 µg/mL | susceptibility category (S/I/R) given with the MIC ([4]; strain E06): S | MIC ([5]; Escherichia coli, 18 h): ≤ 1 µg/mL | susceptibility category (S/I/R) given with the MIC ([5]; strain E10): S | MIC ([6]; Escherichia coli, 18 h): ≤ 1 µg/mL | susceptibility category (S/I/R) given with the MIC ([6]; strain E22): S | MIC ([7]; Escherichia coli, 18 h): ≤ 1 µg/mL | susceptibility category (S/I/R) given with the MIC ([7]; strain E17): S | MIC ([8]; Escherichia coli, 18 h): ≤ 1 µg/mL | susceptibility category (S/I/R) given with the MIC ([8]; strain E14): S | MIC ([9]; Escherichia coli, 18 h): ≤ 1 µg/mL | susceptibility category (S/I/R) given with the MIC ([9]; strain E03): S | MIC ([10]; Escherichia coli, 18 h): ≤ 1 µg/mL | susceptibility category (S/I/R) given with the MIC ([10]; strain E07): S | MIC ([11]; Escherichia coli, 18 h): ≤ 1 µg/mL | susceptibility category (S/I/R) given with the MIC ([11]; strain E18): S | MIC ([12]; Escherichia coli, 18 h): ≤ 1 µg/mL | susceptibility category (S/I/R) given with the MIC ([12]; strain E12): S | MIC ([13]; Escherichia coli, 18 h): ≤ 1 µg/mL | susceptibility category (S/I/R) given with the MIC ([13]; strain E16): S | MIC ([14]; Escherichia coli, 18 h): ≤ 1 µg/mL | susceptibility category (S/I/R) given with the MIC ([14]; strain E02): S | MIC ([15]; Escherichia coli, 18 h): ≤ 1 µg/mL | susceptibility category (S/I/R) given with the MIC ([15]; strain E20): S | MIC ([16]; Escherichia coli, 18 h): ≤ 1 µg/mL | susceptibility category (S/I/R) given with the MIC ([16]; strain E01): S | MIC ([17]; Escherichia coli, 18 h): ≤ 1 µg/mL | susceptibility category (S/I/R) given with the MIC ([17]; strain E19): S | MIC ([18]; Escherichia coli, 18 h): ≤ 1 µg/mL | susceptibility category (S/I/R) given with the MIC ([18]; strain E11): S | MIC ([19]; Escherichia coli, 18 h): ≤ 1 µg/mL | susceptibility category (S/I/R) given with the MIC ([19]; strain E04): S | MIC ([20]; Escherichia coli, 18 h): ≤ 1 µg/mL | susceptibility category (S/I/R) given with the MIC ([20]; strain E15): S | MIC ([21]; Escherichia coli, 18 h): ≤ 1 µg/mL | susceptibility category (S/I/R) given with the MIC ([21]; strain E09): S | MIC ([22]; Escherichia coli, 18 h): ≤ 1 µg/mL | susceptibility category (S/I/R) given with the MIC ([22]; strain E21): S | susceptibility category (S/I/R) given with the MIC ([23]; E. coli ATCC 25922): S | MIC ([23]; Escherichia coli, ATCC25922, 18 h): ≤ 1 µg/mL | MIC [25]: ≤ 1 µg/mL
Compound: C[C@@H](O)[C@H]1C(=O)N2C(C(=O)O)=C(SCCN=CN)C[C@H]12 [IPM, imipenem]
bacterial content in the peritoneal lavage fluid [24]: 4.20 ± 0.25 Log10CFU/mL
